Reference: patent publication US20110250133A1, “GASTRIN […] PEPTIDE COMPOUNDS” (priority 2003, published 2011)

How the values were obtained:
[1] = tested on: T47D human breast cancer cells; test: Effect of drug treatment on GRP receptor binding (177Lu-AMBA) in T47D cells; assay type: cell-based; conditions: for change in 177Lu-AMBA binding (GRP receptor specific signal per cell) vs untreated controls, T47D: Table 25, range 0.001-0.1 μM
Text: T-47D breast cancer cells (human metastatic mammary gland ductal adenocarcinoma isolated from pleural effusion, ER+, PR+) were obtained from the American Type Culture Collection.

[2] = tested on: PC-3 prostate cancer cells; test: Effect of drug treatment on GRP receptor binding (177Lu-AMBA) in PC-3 cells; assay type: cell-based, human; conditions: for change in 177Lu-AMBA binding (GRP receptor specific signal per cell) vs untreated controls, PC-3: Table 25, range 0.001-0.1 μM
Experimental: (§1) RPMI 1640 supplemented with 20 mM HEPES, 0.1% BSA (w/v), 0.5 mM PMSF (AEBSF), bacitracin (50 mg/500 ml), pH 7.4.
(§2) Incubations were stopped by the addition of 200 μL of ice-cold binding buffer. Plates were washed three more times with binding buffer, 140 μL of scintillation fluid was added to each well, the plates were sealed and analyzed on a Microβ plate reader (Microbeta Trilux, Perkin-Elmer).
PC-3 (human prostate adenocarcinoma, bone metastasis, AR-, ER) were obtained from the American Type Culture Collection. The growth medium for PC-3 cells is RPMI 1640 (10-041-CM, Mediatech, Inc), supplemented with 10% heat inactivated FBS (Hyclone, SH30070.03) and PSF-1× (as in Example LXVI). The binding buffer, lapatinib solutions, treatment method and cell binding assay is the same as in Example LXVI.

[3] = tested on: BT-474 human breast cancer cells; test: Effect of drug treatment on GRP receptor binding (177Lu-AMBA) in BT-474 cells; assay type: cell-based; conditions: for change in 177Lu-AMBA binding (GRP receptor specific signal per cell) vs untreated controls, BT-474: Table 25, range 0.001-0.1 μM
Experimental: BT-474 breast cancer cells (human primary invasive ductal carcinoma; ER+, PR+, amplified HER2/neu+) were obtained from the American Type Culture Collection. The growth medium for BT-474 cells is Hybri-care Medium (Cat No: 46X, ATCC) supplemented with 10% heat inactivated FBS (Hyclone, SH30070.03), 0.2% NaHCO3, and antibiotic/antimycotic “PSF-1×” (GibcoBRL, 15240-062) for a final concentration of penicillin-streptomycin (1×, 100 units/mL), and fungizone (0.25 μg/mL). […] Cells for binding experiments were plated on Day 0 at 5.6×10^4 cells/cm^2 in 96-well white/clear bottom microtiter plates (Falcon Optilux-I), or 96 well black/clear collagen I cellware plates (Beckton Dickinson Biocoat).
as §1, §2
Treatment: BT-474 cells were plated on Day 0 and treated on Days 1 and 2 (DT1, DT2).

[4] = molecular target: T1, GRP-R (Homo sapiens, UniProt P30550); test: Competition studies of modified BBN analogs with 125I-BBN for GRP-R in PC3 cells (Example LXI); assay type: binding
T1 construct: host or cells: PC3 (PC-3) human prostate cancer cells, intact adherent cells
Experimental: PC3 cell lines were obtained from ATCC(CRL-1435) and cultured in RPMI 1640 (ATCC) supplemented with 2 mM L-glutamine, 1.5 g/L Sodium bicarbonate, 10 mM HEPES and 10% FBS. […] PC3 cells for the assays were plated at a concentration of 2.0×10^4 cells/well in a 96-well white/clear bottom plates (Falcon Optilux-I). Plates were used for the assays on day 2 of the post-plating.
^125I-BBN (Cat # NEX258) was obtained from PerkinElmer Life Sciences.
All compounds tested were dissolved in binding buffer and appropriate dilutions were also done in binding buffer. PC3 cells for assay were seeded at a concentration of 2.0×10^4/well either in 96-well black/clear collagen I cellware plates (Beckton Dickinson Biocoat). Plates were used for binding studies on day 2 post-plating. The plates were checked for confluency (>90% confluent) prior to assay. […] The studies were conducted with an assay volume of 75 μL per well. Triplicate wells were used for each data point. After the addition of the appropriate solutions, plates were incubated for 1 hour at 4° C. Incubation was ended by the addition of 200 μL of ice-cold incubation buffer. Plates were washed 5 times and blotted dry. Radioactivity was detected using either a LKB CompuGamma counter or a microplate scintillation counter.

[5] = molecular target: T2, NMB-R (Rattus norvegicus, UniProt P24053); test: Competition with 125I-NMB for NMB-R in C6 cells (linker specificity); assay type: binding, rodent; conditions: for receptor subtype preference (GRP-R vs NMB-R): from IC50 with 125I-NMB (C6) and 125I-BBN (PC3), cut off 10x the IC50 of [Tyr4]-BBN; for GRP-R and NMB-R (binds both) / GRP-R (GRP-R preferring): yes / —, cut off 10x the IC50 of [Tyr4]-BBN with 125I-NMB on C6 cells;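 for all read-outs here: test cells: rodent glioblastoma C6 line carrying NMB-R, human prostate cancer PC3 line carrying GRP-R, affinity fitted by one-site competition nonlinear regression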
T2 construct: C6, an NMB-R expressing rodent glioblastoma cell line; host or cells: C6 glioblastoma cells, intact adherent cells
T2 sequence (P24053 1-390): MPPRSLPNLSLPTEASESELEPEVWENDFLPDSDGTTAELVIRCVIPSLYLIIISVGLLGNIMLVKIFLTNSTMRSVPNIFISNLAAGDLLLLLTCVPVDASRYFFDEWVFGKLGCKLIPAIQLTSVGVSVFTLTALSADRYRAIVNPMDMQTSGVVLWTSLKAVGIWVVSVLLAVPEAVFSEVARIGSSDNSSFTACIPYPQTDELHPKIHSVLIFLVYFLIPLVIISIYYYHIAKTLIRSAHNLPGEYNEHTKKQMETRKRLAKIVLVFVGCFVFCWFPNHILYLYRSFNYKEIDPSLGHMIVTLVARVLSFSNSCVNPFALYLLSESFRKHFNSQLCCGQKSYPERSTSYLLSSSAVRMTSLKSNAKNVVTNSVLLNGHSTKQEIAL
Experimental: Two cell lines, C6, an NMB-R expressing rodent glioblastoma cell line and PC3, a GRP-R expressing human prostate cancer cell line, were used in this assay. The affinity of various unlabeled compounds for each receptor subtype (NMB-R and GRP-R) was determined indirectly by measuring its ability to compete with the binding of ^125I-NMB or ^125I-BBN to its corresponding receptors in C6 and PC3 cells.
Cells for the assays were plated at a concentration of 9.6×10^4/well in 48 well poly-lysine coated plates (Beckton Dickinson Biocoat). PC3 were obtained from ATCC(CRL-1435) and cultured in RPMI 1640 (ATCC) supplemented with 2 mM L-glutamine, 1.5 g/L Sodium bicarbonate, 10 mM HEPES and 10% FBS. […] PC3 cells for the assays were plated at a concentration of 2.0×10^4 cells/well in 96-well white/clear bottom plates (Falcon Optilux-I). Plates were used for the assays on day 2 of the post-plating.
RPMI 1640 (ATCC) containing 25 mM HEPES, 0.2% BSA fraction V, 1.0 mM AEBSF (CAS # 3087-99-7) and 0.1% Bacitracin (CAS # 1405-87-4), pH 7.4. Custom made ^125I-[Tyr^0]NMB, >2.0 Ci/μmole (Amersham Life Science) [^125I-NMB] and commercially available ^125I-[Tyr^4]BBN, >2.0 Ci/μmole (Perkin Elmer Life Science) [^125I-BBN] were used as radioligands.
Using a 48-well plate assay system (for C6 study) competition experiments were performed using ^125I-NMB. […] Selection of compounds for the assay was based on linker subtype.
The binding parameters obtained from the studies were analyzed using a one-site competition non-linear regression analysis with GraphPad Prism. The relative affinity of various compounds for NMB-R in C6 cells were compared with those obtained using commercially available [Tyr^4]-BBN and [Tyr^0]-NMB. To distinguish the GRP-R preferring compounds from NMB-R plus GRP-R preferring compounds, IC50 values obtained for each compound were compared with those obtained from [Tyr^4-BBN with ^125I-NMB on C6 cells.

[6] = tested on: PC3 cells; test: Internalization and efflux assay in PC3 cells; assay type: cell-based, human; conditions: 125I-BBN or Lu-177 complexes
Experimental: These studies were conducted in a 96-well plate. […] Incubations were stopped by the addition of 200 μl of ice-cold binding buffer. Plates were washed twice with binding buffer. To remove surface-bound radioligand, the cells were incubated with 0.2M acetic acid (in saline), pH 2.8 for 2 min. Plates were centrifuged and the acid wash media were collected to determine the amount of radioactivity which was not internalized. The cells were collected to determine the amount of internalized ^125I-BBN, and all samples were analyzed in the gamma counter. Data for the internalization assay was normalized by comparing counts obtained at the various time points with the counts obtained at the final time point (T=40 min).
For the efflux studies, after loading the PC3 cells with ^125I-BBN or radiolabeled compounds of the invention for 40 min at 37° C., the unbound material was filtered, and the % of internalization was determined as above. The cells were then resuspended in binding buffer at 37° C. for up to 3 h.

T1 sequence (P30550 whole entry): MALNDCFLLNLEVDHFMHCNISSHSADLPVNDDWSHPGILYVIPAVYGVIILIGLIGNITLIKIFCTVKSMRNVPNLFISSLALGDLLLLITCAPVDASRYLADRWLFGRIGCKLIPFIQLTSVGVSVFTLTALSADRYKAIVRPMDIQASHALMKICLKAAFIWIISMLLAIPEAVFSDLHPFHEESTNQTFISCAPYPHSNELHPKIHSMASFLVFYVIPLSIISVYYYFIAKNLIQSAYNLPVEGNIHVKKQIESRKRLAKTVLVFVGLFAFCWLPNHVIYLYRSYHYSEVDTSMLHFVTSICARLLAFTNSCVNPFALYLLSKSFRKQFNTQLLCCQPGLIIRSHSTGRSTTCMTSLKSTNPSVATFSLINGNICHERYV

CC/C(=C(\c1ccc(O)cc1)c1ccc(OCCN(C)C)cc1)c1ccccc1 [Compounds 4-OH-Tamoxifen]
change in 177Lu-AMBA binding (GRP receptor specific signal per cell) vs untreated controls, T47D [1]: −35% | change in 177Lu-AMBA binding (GRP receptor specific signal per cell) vs untreated controls, PC-3 [2]: 0% | change in 177Lu-AMBA binding (GRP receptor specific signal per cell) vs untreated controls, BT-474 [3]: −73%

C[C@]12CC[C@@H]3c4ccc(O)cc4CC[C@H]3[C@@H]1CC[C@@H]2O [β2-estradiol]
change in GRP receptor specific signal per cell (177Lu-AMBA binding) ([1]; T-47D): did not change | change in 177Lu-AMBA binding (GRP receptor specific signal per cell) vs untreated controls, T47D [1]: 0% | change in GRP receptor specific signal per cell (177Lu-AMBA binding) ([2]; PC-3, drug 0.1-1.0 μM (4-OH Tamoxifen 0.001-0.1 μM)): no change | change in 177Lu-AMBA binding (GRP receptor specific signal per cell) vs untreated controls, PC-3 [2]: 0% | increase in 177Lu-AMBA binding (GRP receptor specific signal per cell) ([3]; BT-474, relative to untreated control, drug 0.1-1.0 μM (β2-estradiol 1 nM)): 47% | change in 177Lu-AMBA binding (GRP receptor specific signal per cell) vs untreated controls, BT-474 [3]: 47%

DO3A-Gly-Abz4-Gln-Trp-Ala-Val-Gly-His-Phe-Leu-NH2 [Compound L300]
competition at the GRP-R [4]: high activity at the GRP-R

DO3A-monoamide-Abu4-QWAVGHLM-NH2
receptor subtype preference (GRP-R vs NMB-R) [5]: dual affinity for both GRP-R and NMB-R | GRP-R and NMB-R (binds both) [5]: yes

DO3A-monoamide-Aoc-QWAVGHL-Nle-NH2
receptor subtype preference (GRP-R vs NMB-R) [5]: dual affinity for both GRP-R and NMB-R | GRP-R and NMB-R (binds both) [5]: Yes

DO3A-monoamide-Aoc-QWAVGHLM-NH2
Internalisation (40 minutes) ([6]; 40 min at 37° C.): 89% | Efflux (2 h) ([6]; 2 h at 37° C. after 40 min loading): 28%

DO3A-monoamide-Apa3-QWAVGHLM-NH2
receptor subtype preference (GRP-R vs NMB-R) [5]: dual affinity for both GRP-R and NMB-R | GRP-R and NMB-R (binds both) [5]: yes

DO3A-monoamide-Cha-Cha-QWAVGHLM-NH2
receptor subtype preference (GRP-R vs NMB-R) [5]: selective affinity towards GRP-R | GRP-R (GRP-R preferring) [5]: yes

DO3A-monoamide-Nal1-Bip-QWAVGHLM-NH2
receptor subtype preference (GRP-R vs NMB-R) [5]: selective affinity towards GRP-R | GRP-R (GRP-R preferring) [5]: yes

DO3A-monoamide-Nal1-Bpa4-QWAVGHLM-NH2
receptor subtype preference (GRP-R vs NMB-R) [5]: selective affinity towards GRP-R | GRP-R (GRP-R preferring) [5]: yes

Gln-Trp-Ala-Val-Gly-His-Leu-Met-NH2 [BBN7-14]
receptor subtype preference (GRP-R vs NMB-R) [5]: did not show any preference | receptor preference in words (GRP-R / GRP-R and NMB-R) ([5]; wrapped cell: 'No selective preference' or 'preference for NMB-R'): No selective

N-[4-[[[[4,7,10-Tris(carboxymethyl)-1,4,7,10-tetraazacyclododec-1-yl]acetyl]glycyl]amino]-3-methoxybenzoyl]-L-glutaminyl-L-tryptophyl-1-alanyl-L-valyl-glycyl-L-histidyl-L-leucyl-L-methioninamide [Compound L240]
receptor subtype preference (GRP-R vs NMB-R) [5]: selective affinity to GRP-R
